Numbers after ± are expanded uncertainties.
Conditions: Liquid, Pycnometric method

CCCCCCCCCCCCCCCC [hexadecane]
Conditions | specific volume [m3/kg]
298 K | 0.001313 ± 2e-05
323 K | 0.001344 ± 2e-05
348 K | 0.001376 ± 2.1e-05
373 K | 0.001411 ± 2.1e-05
398 K | 0.001447 ± 2.2e-05
423 K | 0.001486 ± 2.2e-05
448 K | 0.001529 ± 2.3e-05
473 K | 0.001575 ± 2.4e-05
498 K | 0.001626 ± 2.4e-05
523 K | 0.001682 ± 2.5e-05
548 K | 0.001744 ± 2.6e-05
573 K | 0.001811 ± 2.7e-05

CCCCCCCCCCCCCCCCCCCCC [heneicosane]
Conditions | specific volume [m3/kg]
313.65 K | 0.001285 ± 1.9e-05
315.75 K | 0.001283 ± 1.9e-05
317.65 K | 0.001286 ± 1.9e-05
319.65 K | 0.001288 ± 1.9e-05
321.55 K | 0.001289 ± 1.9e-05
323.55 K | 0.001291 ± 1.9e-05
325.45 K | 0.001294 ± 1.9e-05
327.45 K | 0.001296 ± 1.9e-05
329.35 K | 0.001299 ± 1.9e-05
331.25 K | 0.001302 ± 1.9e-05
333.25 K | 0.001302 ± 1.9e-05
335.15 K | 0.001304 ± 2e-05
337.15 K | 0.001307 ± 2e-05
339.05 K | 0.001309 ± 2e-05
341.05 K | 0.00131 ± 2e-05
342.95 K | 0.001313 ± 2e-05
344.85 K | 0.001315 ± 2e-05
346.85 K | 0.001317 ± 2e-05
348.75 K | 0.001321 ± 2e-05
350.75 K | 0.001324 ± 2e-05
352.65 K | 0.001325 ± 2e-05
354.65 K | 0.001329 ± 2e-05
354.85 K | 0.001329 ± 2e-05
356.55 K | 0.001331 ± 2e-05
358.45 K | 0.001333 ± 2e-05
360.45 K | 0.001335 ± 2e-05
362.35 K | 0.001337 ± 2e-05
364.35 K | 0.00134 ± 2e-05
366.25 K | 0.001342 ± 2e-05
368.15 K | 0.001344 ± 2e-05
370.15 K | 0.001349 ± 2e-05
372.05 K | 0.00135 ± 2e-05
374.05 K | 0.001354 ± 2e-05
375.45 K | 0.001353 ± 2e-05
375.95 K | 0.001354 ± 2e-05
377.95 K | 0.001358 ± 2e-05
379.85 K | 0.001361 ± 2.1e-05
381.75 K | 0.001362 ± 2.1e-05
383.75 K | 0.001366 ± 2.1e-05
385.65 K | 0.001367 ± 2.1e-05
387.65 K | 0.001369 ± 2.1e-05
389.55 K | 0.001373 ± 2.1e-05
391.55 K | 0.001373 ± 2.1e-05
393.45 K | 0.001377 ± 2.1e-05
395.35 K | 0.00138 ± 2.1e-05
396.05 K | 0.00138 ± 2.1e-05
397.35 K | 0.001381 ± 2.1e-05
399.25 K | 0.001386 ± 2.1e-05
401.25 K | 0.001384 ± 2.1e-05
403.15 K | 0.001387 ± 2.1e-05
405.15 K | 0.001392 ± 2.1e-05
407.05 K | 0.001394 ± 2.1e-05
408.95 K | 0.001396 ± 2.1e-05
410.95 K | 0.001401 ± 2.1e-05
412.85 K | 0.001401 ± 2.1e-05
414.85 K | 0.001404 ± 2.1e-05
416.65 K | 0.001408 ± 2.1e-05
416.75 K | 0.001409 ± 2.1e-05
418.65 K | 0.00141 ± 2.1e-05
420.65 K | 0.001411 ± 2.1e-05
422.55 K | 0.001417 ± 2.1e-05
424.55 K | 0.001419 ± 2.1e-05
426.45 K | 0.001421 ± 2.1e-05
428.45 K | 0.001423 ± 2.1e-05
430.35 K | 0.001426 ± 2.2e-05
432.25 K | 0.001432 ± 2.2e-05
434.25 K | 0.001432 ± 2.2e-05
436.15 K | 0.001436 ± 2.2e-05
437.25 K | 0.001437 ± 2.2e-05
438.15 K | 0.001437 ± 2.2e-05
440.05 K | 0.001443 ± 2.2e-05
442.05 K | 0.001444 ± 2.2e-05
443.95 K | 0.001448 ± 2.2e-05
445.85 K | 0.00145 ± 2.2e-05
447.85 K | 0.001454 ± 2.2e-05
449.75 K | 0.001455 ± 2.2e-05
451.75 K | 0.001458 ± 2.2e-05
453.65 K | 0.00146 ± 2.2e-05
455.65 K | 0.001464 ± 2.2e-05
457.55 K | 0.001467 ± 2.2e-05
457.85 K | 0.001468 ± 2.2e-05
459.45 K | 0.00147 ± 2.2e-05
461.45 K | 0.001471 ± 2.2e-05
463.35 K | 0.001476 ± 2.2e-05
465.35 K | 0.001479 ± 2.2e-05
467.25 K | 0.001484 ± 2.2e-05
469.15 K | 0.001485 ± 2.2e-05
471.15 K | 0.001489 ± 2.2e-05
473.05 K | 0.001491 ± 2.2e-05
475.05 K | 0.001492 ± 2.2e-05
476.95 K | 0.001497 ± 2.3e-05
478.45 K | 0.001498 ± 2.3e-05
478.95 K | 0.001502 ± 2.3e-05
480.85 K | 0.001503 ± 2.3e-05
482.75 K | 0.001505 ± 2.3e-05
484.75 K | 0.001511 ± 2.3e-05
486.65 K | 0.001513 ± 2.3e-05
488.65 K | 0.001516 ± 2.3e-05
488.75 K | 0.001517 ± 2.3e-05
490.55 K | 0.001519 ± 2.3e-05
492.55 K | 0.001521 ± 2.3e-05
494.45 K | 0.001523 ± 2.3e-05
496.35 K | 0.00153 ± 2.3e-05
498.35 K | 0.001531 ± 2.3e-05
500.25 K | 0.001537 ± 2.3e-05
502.25 K | 0.001536 ± 2.3e-05
504.15 K | 0.001543 ± 2.3e-05
506.15 K | 0.001544 ± 2.3e-05
508.05 K | 0.00155 ± 2.3e-05
509.95 K | 0.001551 ± 2.3e-05
511.95 K | 0.001554 ± 2.3e-05
513.85 K | 0.001559 ± 2.3e-05
515.85 K | 0.001564 ± 2.4e-05
517.75 K | 0.001567 ± 2.4e-05
519.65 K | 0.001569 ± 2.4e-05
521.65 K | 0.001575 ± 2.4e-05
523.55 K | 0.001575 ± 2.4e-05
525.55 K | 0.001582 ± 2.4e-05
527.45 K | 0.001586 ± 2.4e-05
529.45 K | 0.001588 ± 2.4e-05
531.35 K | 0.001588 ± 2.4e-05
533.25 K | 0.001596 ± 2.4e-05
535.25 K | 0.0016 ± 2.4e-05
537.15 K | 0.001603 ± 2.4e-05
539.15 K | 0.001606 ± 2.4e-05
541.05 K | 0.001612 ± 2.4e-05
543.05 K | 0.001614 ± 2.4e-05
544.95 K | 0.001617 ± 2.4e-05
546.85 K | 0.001621 ± 2.4e-05
548.85 K | 0.001626 ± 2.4e-05
550.75 K | 0.001626 ± 2.4e-05
552.75 K | 0.001634 ± 2.5e-05
554.65 K | 0.001635 ± 2.5e-05
556.65 K | 0.001639 ± 2.5e-05
558.55 K | 0.001643 ± 2.5e-05
560.45 K | 0.001648 ± 2.5e-05
562.45 K | 0.00165 ± 2.5e-05
564.35 K | 0.001657 ± 2.5e-05
566.35 K | 0.001659 ± 2.5e-05

From the NIST ThermoML archive (doi:10.1016/j.tca.2006.04.001)
